Data from patent US20260364080A1, “PYRAZOLO-PYRIMIDINONE COMPOUNDS FOR USE IN METHODS OF INHIBITING WEE1 A KINASE” (Acrivon Therapeutics, Inc., priority 2023, published 2026).

Legend:
[1] = target: T1, Myt1 kinase (CDK1 Thr14 phosphorylation in DAOY medulloblastoma cells) (Homo sapiens, UniProt Q99640); experiment: AlphaLISA assay, Myt1 kinase target engagement (phospho-CDK1 Thr14) in DAOY cells; format: cell-based; details: 4 h treatment, read-out: CDK1 Thr14 Phosphorylation EC50
T1 construct: pCDK1 Thr14 AlphaLISA read-out
T1 sequence (Q99640 1-499): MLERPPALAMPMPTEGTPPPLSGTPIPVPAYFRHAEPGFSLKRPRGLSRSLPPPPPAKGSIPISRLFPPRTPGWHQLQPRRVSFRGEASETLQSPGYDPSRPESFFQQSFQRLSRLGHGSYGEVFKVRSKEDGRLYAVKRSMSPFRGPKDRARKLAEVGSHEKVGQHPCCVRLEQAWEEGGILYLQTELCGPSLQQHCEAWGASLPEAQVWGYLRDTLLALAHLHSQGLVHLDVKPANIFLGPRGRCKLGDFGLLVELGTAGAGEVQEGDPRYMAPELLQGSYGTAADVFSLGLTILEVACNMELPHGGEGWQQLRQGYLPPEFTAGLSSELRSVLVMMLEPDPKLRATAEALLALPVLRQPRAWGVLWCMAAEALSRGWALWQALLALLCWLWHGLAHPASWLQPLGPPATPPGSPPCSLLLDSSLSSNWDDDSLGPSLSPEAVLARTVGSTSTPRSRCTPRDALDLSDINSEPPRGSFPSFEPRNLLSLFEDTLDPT
Procedure, shortened: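 Cells seeded at 10,000 (DAOY) or 20,000 (ACHN) per well, treated 24 h later for 4 h with compound at 7–5000 nM. Lysates analysed by AlphaLISA SureFire Ultra phospho-CDK1 (Thr14) with donor/acceptor beads; EC50 from dose-response curves.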

[2] = target: T2, Wee1A kinase (CDK1 Tyr15 phosphorylation in ACHN renal cell carcinoma cells) (Homo sapiens, UniProt P30291); experiment: High-content imaging of pCdk1 Y15, Wee1A kinase target engagement in ACHN cells; format: cell-based; details: 4 h treatment, nuclear positivity for pCdk1 Y15 vs DMSO control, read-out: CDK1 Tyr15 Phosphorylation EC50
T2 construct: pCDK1 Tyr15 immunofluorescence read-out
T2 sequence (P30291 whole entry): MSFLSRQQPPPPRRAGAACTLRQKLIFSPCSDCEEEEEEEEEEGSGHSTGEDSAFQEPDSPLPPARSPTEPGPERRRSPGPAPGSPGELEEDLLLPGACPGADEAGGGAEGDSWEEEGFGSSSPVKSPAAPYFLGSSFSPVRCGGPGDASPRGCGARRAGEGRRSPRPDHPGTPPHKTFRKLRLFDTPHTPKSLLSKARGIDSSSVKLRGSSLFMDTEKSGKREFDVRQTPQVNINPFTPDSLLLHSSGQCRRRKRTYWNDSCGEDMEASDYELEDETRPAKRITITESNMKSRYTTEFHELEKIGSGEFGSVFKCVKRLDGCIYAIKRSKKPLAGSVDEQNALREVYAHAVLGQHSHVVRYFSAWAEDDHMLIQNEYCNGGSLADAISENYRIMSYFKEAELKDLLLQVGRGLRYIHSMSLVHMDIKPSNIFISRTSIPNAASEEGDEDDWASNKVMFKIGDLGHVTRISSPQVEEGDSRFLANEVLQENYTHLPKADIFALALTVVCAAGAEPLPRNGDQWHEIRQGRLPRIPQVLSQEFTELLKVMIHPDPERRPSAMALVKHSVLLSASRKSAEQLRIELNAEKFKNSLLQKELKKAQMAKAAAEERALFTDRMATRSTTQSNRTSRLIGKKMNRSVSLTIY
Procedure, shortened: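 ACHN cells exposed to compound for 4 h over 7–5,000 nM or 0.3–200 nM, then fixed and immunostained for pCDK1 Y15 with DAPI nuclear counterstain. The percentage of pCdk1 Y15 nucleus-positive cells relative to DMSO control was imaged per well; EC50 from dose-response curves.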

[3] = target: T3, Myt1 kinase (recombinant PMYT-1) (Homo sapiens, UniProt Q99640); experiment: Myt1 kinase binding assay (LanthaScreen Eu Kinase Binding Assay); details: 3 nM tracer 178, 2.5 nM PMYT-1, 1 nM Eu-labeled antibody; read-out: Myt1 kinase Binding IC50
T3 construct: full length PMYT-1 was expressed by baculovirus in insect cells; purchased Invitrogen A30984; host or cells: insect cells (baculovirus)
T3 sequence (Q99640 1-499): T1 sequence (Q99640 1-499)
Procedure, shortened: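 The binding affinity of compounds for Myt1 kinase was measured with a LanthaScreen Europium (Eu) Kinase Binding Assay, a time-resolved FRET format in which test compounds compete against a labeled kinase tracer, and the results were expressed as IC50 values describing compound binding to Myt1.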

[4] = target: T4, recombinant human Wee1A kinase (Homo sapiens, UniProt P30291); experiment: Wee1A kinase binding assay (LanthaScreen Eu time-resolved FRET); details: 30 nM tracer 178, 5 nM Wee1A kinase, 2 nM Eu-labeled antibody; 60 minutes at room temperature; read-out: Wee1A kinase Binding IC50
T4 construct: full length Wee1 kinase was expressed by baculovirus in insect cells; purchased Invitrogen PV3817; host or cells: insect cells (baculovirus)
T4 sequence (P30291 whole entry): as above
Procedure, shortened: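 Full-length, baculovirus-expressed GST-tagged Wee1A (5 nM) was mixed with 2 nM Eu-anti-GST antibody, 30 nM kinase tracer 178 and compound (1% DMSO). Buffer was 50 mM HEPES pH 7.5, 10 mM MgCl2, 1 mM EGTA, 0.01% Brij-35, incubated 60 min at room temperature. TR-FRET 665/615 nm emission ratios from duplicates were curve-fitted.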

DAOY cells = experiment: Cell Titer Glo viability assay, DAOY cells; format: cell-based; details: Homo sapiens, 144 h, absolute EC50
Protocol: Each of an ACHN renal cell carcinoma cell line (ATCC) and a DAOY medulloblastoma cell line, and an A427 lung cancer line were cultured in Minimum Essential Medium Eagle supplemented with 10% fetal calf serum (Sigma), 1% Penicillin-Streptomycin and 10 mM HEPES buffer (HyClone). Cell cultures were kept in a humidified incubator at 37 °C and 5% CO2. Cells were routinely tested for Mycoplasma contamination.
ACHN cells, DAOY cells, or A427 cells were seeded at a density of 400, 250, or 500 cells per well respectively, in tissue culture treated 384 well plates (Corning Costar). After overnight incubation, cells were treated with drugs at concentrations ranging from 17 to 10 000 nM. Viability compared to untreated control was assessed at 144 h using Cell Titer Glo assay 2.0 (Promega). […] “NT” means the compounds was not tested in the indicated cells.

ACHN cells = experiment: Cell Titer Glo viability assay, ACHN cells; format: cell-based; details: Homo sapiens, 144 h, absolute EC50
Procedure, shortened: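 Cells grown in MEM with 10% FCS were seeded at 500 (A427), 400 (ACHN) or 250 (DAOY) per well and treated the next day with compound at 17 to 10 000 nM. Viability relative to untreated control was read at 144 h by CellTiter-Glo 2.0.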

SMILES	EC50 [1]	EC50 [2]	IC50 [3]	IC50 [4]	EC50 (ACHN cells)	EC50 (DAOY cells)
C=CCn1c(=O)c2cnc(Nc3ccc4ccoc4c3)nc2n1-c1cccc(OC2CCN(C)CC2)n1 [Compound 308, 2-allyl-6-(1-benzofuran-6-ylamino)-1-[6-(1-methyl-4-piperidyloxy)-2-pyridyl]-1,2-dihydro-3H-1,2,5,7-tetraazainden-3-one]	< 0.2 µM	< 0.1 µM	< 0.02 µM	< 0.01 µM	≤ 0.1 µM	≤ 0.1 µM
C=CCn1c(=O)c2cnc(Nc3ccc4cccnc4c3)nc2n1-c1cccc(OC2CCN(C)CC2)n1 [Compound 335, 2-allyl-1-[6-(1-methyl-4-piperidyloxy)-2-pyridyl]-6-(7-quinolylamino)-1,2-dihydro-3H-1,2,5,7-tetraazainden-3-one]	0.2 to 0.5 µM	< 0.1 µM	< 0.02 µM	< 0.01 µM	≤ 0.1 µM	≤ 0.1 µM
C=CCn1c(=O)c2cnc(Nc3ccc4sncc4c3)nc2n1-c1cccc(OC2CCN(C)CC2)n1 [Compound 320, 2-allyl-6-(1,2-benzisothiazol-5-ylamino)-1-[6-(1-methyl-4-piperidyloxy)-2-pyridyl]-1,2-dihydro-3H-1,2,5,7-tetraazainden-3-one]	0.2 to 0.5 µM	< 0.1 µM	< 0.02 µM	< 0.01 µM	≤ 0.1 µM	≤ 0.1 µM
C=CCn1c(=O)c2cnc(Nc3ccc4c(cnn4C(C)C)c3)nc2n1-c1cccc(OC2CCN(C)CC2)n1 [Compound 248, 2-allyl-6-(1-isopropyl-1H-indazol-5-ylamino)-1-[6-(1-methyl-4-piperidyloxy)-2-pyridyl]-1,2-dihydro-3H-1,2,5,7-tetraazainden-3-one]	< 0.2 µM	< 0.1 µM	< 0.02 µM	< 0.01 µM	≤ 0.1 µM	≤ 0.1 µM
CN1CCC(Oc2cccc(-n3c4nc(Nc5ccc6c(cnn6C)c5)ncc4c(=O)n3C)n2)CC1 [Compound 121, 2-methyl-6-(1-methyl-1H-indazol-5-ylamino)-1-[6-(1-methyl-4-piperidyloxy)-2-pyridyl]-1,2-dihydro-3H-1,2,5,7-tetraazainden-3-one]	0.2 to 0.5 µM	< 0.1 µM	0.02 to 0.1 µM	< 0.01 µM	≤ 0.1 µM	≤ 0.1 µM
C=CCn1c(=O)c2cnc(Nc3ccc4ncsc4c3)nc2n1-c1cccc(OC2CCN(C)CC2)n1 [Compound 303, 2-allyl-6-(1,3-benzothiazol-6-ylamino)-1-[6-(1-methyl-4-piperidyloxy)-2-pyridyl]-1,2-dihydro-3H-1,2,5,7-tetraazainden-3-one]	0.2 to 0.5 µM	< 0.1 µM	< 0.02 µM	< 0.01 µM	≤ 0.1 µM	0.1 to 0.5 µM
C=CCn1c(=O)c2cnc(Nc3ccc4c(cnn4C)c3)nc2n1-c1cccc(OC2CCNCC2)n1 [Compound 106, 2-allyl-6-(1-methyl-1H-indazol-5-ylamino)-1-[6-(4-piperidyloxy)-2-pyridyl]-1,2-dihydro-3H-1,2,5,7-tetraazainden-3-one]	0.2 to 0.5 µM	< 0.1 µM	0.02 to 0.1 µM	< 0.01 µM	≤ 0.1 µM	0.1 to 0.5 µM
C=CCn1c(=O)c2cnc(Nc3ccc4scnc4c3)nc2n1-c1cccc(OC2CCN(C)CC2)n1 [Compound 209, 2-allyl-6-(benzo[d]thiazol-5-ylamino)-1-(6-((1-methylpiperidin-4-yl)oxy)pyridin-2-yl)-1,2-dihydro-3H-pyrazolo[3,4-d]pyrimidin-3-one]	< 0.2 µM	< 0.1 µM	< 0.02 µM	< 0.01 µM	≤ 0.1 µM	≤ 0.1 µM

Continued, in another order:

EC50 [1]	EC50 [2]	IC50 [3]	IC50 [4]	EC50 (ACHN cells)	SMILES	EC50 (DAOY cells)
0.5 to 1 µM	< 0.1 µM	0.02 to 0.1 µM	< 0.01 µM	≤ 0.1 µM	C=CCn1c(=O)c2cnc(Nc3ccc(F)cc3)nc2n1-c1cccc(OC2CCN(C)CC2)n1 [Compound 207, 6-[(4-fluorophenyl)amino]-1-{6-[(1-methylpiperidin-4-yl)oxy]pyridin-2-yl}-2-(prop-2-en-1-yl)-1H,2H,3H-pyrazolo[3,4-d]pyrimidin-3-one]	≤ 0.1 µM
0.5 to 1 µM	< 0.1 µM	0.02 to 0.1 µM	< 0.01 µM	≤ 0.1 µM	C=CCn1c(=O)c2cnc(Nc3ccc(C)nc3)nc2n1-c1cccc(OC2CCN(C)CC2)n1 [Compound 197, 2-allyl-1-[6-(1-methyl-4-piperidyloxy)-2-pyridyl]-6-(6-methyl-3-pyridylamino)-1,2-dihydro-3H-1,2,5,7-tetraazainden-3-one]	≤ 0.1 µM
< 0.2 µM	< 0.1 µM	0.02 to 0.1 µM	< 0.01 µM	≤ 0.1 µM	C=CCn1c(=O)c2cnc(Nc3ccc4nc(C)oc4c3)nc2n1-c1cccc(OC2CCN(C)CC2)n1 [Compound 311, 2-allyl-6-(2-methyl-1,3-benzoxazol-6-ylamino)-1-[6-(1-methyl-4-piperidyloxy)-2-pyridyl]-1,2-dihydro-3H-1,2,5,7-tetraazainden-3-one]	≤ 0.1 µM
0.2 to 0.5 µM	< 0.1 µM	< 0.02 µM	< 0.01 µM	≤ 0.1 µM	C=CCn1c(=O)c2cnc(Nc3ccc4oc(C)nc4c3)nc2n1-c1cccc(OC2CCN(C)CC2)n1 [Compound 231, 2-allyl-6-(2-methyl-1,3-benzoxazol-5-ylamino)-1-[6-(1-methyl-4-piperidyloxy)-2-pyridyl]-1,2-dihydro-3H-1,2,5,7-tetraazainden-3-one]	≤ 0.1 µM
0.2 to 0.5 µM	< 0.1 µM	0.02 to 0.1 µM	< 0.01 µM	≤ 0.1 µM	C=CCn1c(=O)c2cnc(Nc3ccnc(C)c3)nc2n1-c1cccc(OC2CCN(C)CC2)n1 [Compound 112, 1-{6-[(1-methylpiperidin-4-yl)oxy]pyridin-2-yl}-6-[(2-methylpyridin-4-yl)amino]-2-(prop-2-en-1-yl)-1H,2H,3H-pyrazolo[3,4-d]pyrimidin-3-one]	0.1 to 0.5 µM
0.2 to 0.5 µM	< 0.1 µM	0.02 to 0.1 µM	< 0.01 µM	≤ 0.1 µM	C=CCn1c(=O)c2cnc(Nc3cc(C)cc(F)c3)nc2n1-c1cccc(OC2CCN(C)CC2)n1 [Compound 205, 6-[(3-fluoro-5-methylphenyl)amino]-1-{6-[(1-methylpiperidin-4-yl)oxy]pyridin-2-yl}-2-(prop-2-en-1-yl)-1H,2H,3H-pyrazolo[3,4-d]pyrimidin-3-one]	0.1 to 0.5 µM
